Data: patent publication US10519169B2, “3-(1H-pyrrolo[2,3-C]pyridin-2-yl)-1 H-pyrazolo[4,3-B]pyridines and therapeutic uses thereof” (Samumed, LLC, priority 2015, dated 2019)

Key:
Assay type in all cases: cell-based
IL-6 = IL-6 inhibition in LPS-stimulated THP-1 cells (HTRF); conditions: Homo sapiens; for EC50: LPS 500 ng/mL, 22 hours, IL6 HTRF
Experimental: Human monocyte cell line (THP-1 cells; Catalog # TIB-202, ATCC, Manassas, Va.) were cultured in Roswell Park Memorial Institute (RPMI) 1640 Medium (Catalog #21870-100, Buffalo, N.Y.) with 1% L-glutamine, 1% HEPES, 1% Sodium Pyruvate, 2% Sodium Bicarbonate supplemented with 100 units/mL penicillin, 50 μg/mL streptomycin, 2-mercaptoethanol (0.05 mM) [basal medium] and 10% fetal bovine serum (Catalog #16140089, Life Technologies, Carlsbad, Calif.) at 37° C. and 5% CO2.
THP-1 cells were cultured in basal media with 1% FBS for 24 hours before the start of the assay. Each compound was dissolved in DMSO as a 10 mM stock and used to prepare compound source plates. Serial dilution (1:3, 10-point dose-response curves starting from 10 μM) and compound transfer was performed using the ECHO 550 (Labcyte, Sunnyvale, Calif.) into 384-well white low volume assay plates (Greiner Bio-One) with appropriate DMSO backfill for a final DMSO concentration of 0.1%. THP-1 cells were plated at 5000 cells/well in the 384-well plates and incubated at 37° C. for 2 h. 500 ng/mL of LPS was added after 2 hours and cells were incubated for another 22 hours at 37° C. Plates were spun in a centrifuge for 1 minute at […] and a mixture of anti-IL6 XL665, and anti-IL6 Cryptate diluted in reconstitution buffer (Cisbio Inc.) was added to each well. Following incubation for 3 hrs at room temperature, Homogeneous Time-Resolved Fluorescence (HTRF) was measured using the Envision (Perkin Elmer) at 665 nm and […]. The ratio of fluorescence at 665 nm to 620 nm was used as a readout for IL6 quantification. All samples were processed in duplicate. Readings were normalized to DMSO treated cells and normalized activities were utilized for EC50 calculations using the dose-response log (inhibitor) vs. response-variable slope (four parameters) nonlinear regression feature available in GraphPad Prism 5.0 (or Dotmatics). For EC50 of >10 μM, the percent inhibition at […] is provided.

[1] = system: primary human fibroblasts derived from IPF patients (LL29 cells) treated with TGF-β1; assay: Inhibition of fibrotic process, αSMA staining in TGF-β1 treated LL29 fibroblasts; conditions: Fibroblast; for EC50: 96 h, TGF-β1 20 ng/mL, 4 days, % cells positive for αSMA
Source text: Representative compounds were screened using primary human fibroblasts (derived from IPF patients) treated with TGF-β1 to determine their ability to inhibit the fibrotic process.
Primary human fibroblasts derived from IPF patients (LL29 cells) [^1Xiaoqiu Liu, et. al., “Fibrotic Lung Fibroblasts Show Blunted Inhibition by cAMP Due to Deficient cAMP Response Element-Binding Protein Phosphorylation”, Journal of Pharmacology and Experimental Therapeutics (2005), 315(2), 678-687; ^2Watts, K. L., et. al., “RhoA signaling modulates cyclin D1 expression in human lung fibroblasts; implications for idiopathic pulmonary fibrosis”, Respiratory Research (2006), 7(1), 88] were obtained from American Type Culture Collection (ATCC) and expanded in F12 medium supplemented with 15% Fetal Bovine Serum and Penicillin/Streptomycin.
Each compound was dissolved in DMSO as a 10 mM stock and used to prepare compound source plates. Serial dilution (1:2, 11-point dose-response curves from […] to […]) and compound transfer was performed using the ECHO 550 (Labcyte, Sunnyvale, Calif.) into 384-well clear bottom assay plates (Greiner Bio-One) with appropriate DMSO backfill for a final DMSO concentration of 0.1%. LL29 cells are plated at 1,500 cells/well in 80 μL/well F12 medium supplemented with 1% Fetal Bovine Serum. One hour after addition of the cells, TGF-β1 (Peprotech; 20 ng/mL) was added to the plates to induce fibrosis (ref. 1 and 2 above). Wells treated with TGF-β1 and containing DMSO were used as controls. Cells were incubated at 37° C. and 5% CO2 for 4 days. Following incubation for 4 days, SYTOX green nucleic acid stain (Life Technologies [Thermo Fisher Scientific]) was added to the wells at a final concentration of 1 μM and incubated at room temperature for 30 min. Cells were then fixed using 4% formaldehyde (Electron Microscopy Sciences), washed 3 times with PBS followed by blocking and permeabilization using 3% Bovine Serum Albumin (BSA; Sigma) and 0.3% Triton X-100 (Sigma) in PBS. Cells were then stained with antibody specific to α-smooth muscle actin (aSMA; Abcam) (ref. 1 and 2 above) in 3% Bovine Serum Albumin (BSA; Sigma) and 0.3% Triton X-100 (Sigma) in PBS, and incubated overnight at 4° C. Cells were then washed 3 times with PBS, followed by incubation with Alexa Flor-647 conjugated secondary antibody (Life Technologies [Thermo Fisher Scientific]) and DAPI at room temperature for 1 hour. Cells were then washed 3 times with PBS and plates were sealed for imaging. aSMA staining was imaged by excitation at 630 nm and emission at 665 nm and quantified using the Compartmental Analysis program on the CellInsight CX5 (Thermo Scientific). Dead or apoptotic cells were excluded from analysis based on positive SYTOX green staining. % of total cells positive for aSMA were counted in each well and normalized to the average of 11 wells treated with TGF-β1 on the same plate using Dotmatics' Studies Software. The normalized averages (fold change over untreated) of 3 replicate wells for each compound concentration were used to create dose-responses curves and EC50 values were calculated using non-linear regression curve fit in the Dotmatics' Studies Software. For EC50 of >10 μM, the percent inhibition at 10 μM is provided.

SW480 colon cancer cells = assay: Cell viability assay (CellTiter-Blue), SW480 cells; conditions: Homo sapiens, 96 h, four days, CellTiter-Blue
Experimental: Representative compounds were screened using the following assay procedure to assess the effect on cell viability as described below.
Each compound was dissolved in DMSO as a 10 mM stock and used to prepare compound source plates. Serial dilution (1:3, 8-point dose-response curves from […]) and compound transfer was performed using the ECHO 550 (Labcyte, Sunnyvale, Calif.) into 96-well clear bottom, black-walled plates (Corning-Costar).
Approximately 2×10^3 SW480 colon cancer cells were seeded into each well and allowed to incubate in the presence or absence of compound for four days at 37° C./5% CO2. Eight replicates of DMSO-treated cells served as controls and cells treated with compound were performed in duplicate.
After incubation, 20 μL of CellTiter-Blue (Promega) was added to each well allowed to incubate for approximately 3 hours. This reagent was a buffered solution which contains resazurin, metabolically active cells were able to reduce rezarurin (blue) into resorufin (pink) which was highly fluorescent. This measured fluorescence was used as a readout for cell viability.
After incubation, the plates were read at Ex 560 nm Em 590 nm (Cytation 3, BioTek). Dose-response curves were generated and EC50 concentration values were calculated using non-linear regression curve fit in the GraphPad Prism (San Diego, Calif.) or Dotmatics' Studies Software (Bishops Stortford, UK). For EC50 of >10 μM, the percent inhibition at 10 μM is provided.

[2] = system: Wnt activity (Sp5-Luc reporter, TCF/LEF binding sites) in SW480 colon carcinoma cells; assay: Wnt activity screening assay, Sp5-Luc reporter gene in SW480 cells; conditions: Homo sapiens; for EC50: overnight incubation
Source text: The screening assay for Wnt activity is described as follows. Reporter cell lines can be generated by stably transducing cancer cell lines (e.g., colon cancer) or primary cells (e.g., IEC-6 intestinal cells) with a lentiviral construct that includes a Wnt-responsive promoter driving expression of the firefly luciferase gene.
SW480 colon carcinoma cells were transduced with a lentiviral vector expressing luciferase with a human Sp5 promoter consisting of a sequence of eight TCF/LEF binding sites. SW480 cells stably expressing the Sp5-Luc reporter gene and a hygromycin resistance gene were selected by treatment with 150 μg/mL of hygromycin for 7 days. These stably transduced SW480 cells were expanded in cell culture and used for all further screening activities. Each compound was dissolved in DMSO as a 10 mM stock and used to prepare compound source plates. Serial dilution (1:3, 10-point dose-response curves starting from 10 μM) and compound transfer was performed using the ECHO 550 (Labcyte, Sunnyvale, Calif.) into 384-well white solid bottom assay plates (Greiner Bio-One) with appropriate DMSO backfill for a final DMSO concentration of 0.1%. For Sp5-Luc reporter gene assays, the cells were plated at 4,000 cells/well in 384-well plates with medium containing 1% fetal bovine serum and incubated overnight at 37° C. and 5% CO2. Following incubation, 20 μl of BrightGlo luminescence reagent (Promega) was added to each well of the 384-well assay plates. The plates were placed on an orbital shaker for 2 min and then luminescence was quantified using the Envision (Perkin Elmer) plate reader. Readings were normalized to DMSO only treated cells, and normalized activities were utilized for EC50 calculations using the dose-response log (inhibitor) vs. response-variable slope (four parameters) nonlinear regression feature available in GraphPad Prism 5.0 (or Dotmatics). For EC50 of >10 μM, the percent inhibition at 10 μM is provided.

`Fc1ccccc1-c1cncc2[nH]c(-c3n[nH]c4ccc(-c5cncc(CNCc6ccccc6)c5)nc34)cc12` [Compound 80, N-Benzyl-1-(5-(3-(4-(2-fluorophenyl)-1H-pyrrolo[2,3-c]pyridin-2-yl)-1H-pyrazolo[4,3-b]pyridin-5-yl)pyridin-3-yl)methanamine] showed an EC50 (IL-6) of 5790 nM, an EC50 [1] of 4600 nM and an EC50 (SW480 colon cancer cells) of 6.73 µM. It also gave an EC50 [2] of 3980 nM.

For `CS(=O)(=O)NCc1cc(F)cc(-c2cncc3[nH]c(-c4n[nH]c5ccc(-c6cncc(CN7CCC(F)(F)C7)c6)nc45)cc23)c1` [Compound 502, N-(3-(2-(5-(5-((3,3-Difluoropyrrolidin-1-yl)methyl)pyridin-3-yl)-1H-pyrazolo[4,3-b]pyridin-3-yl)-1H-pyrrolo[2,3-c]pyridin-4-yl)-5-fluorobenzyl)methanesulfonamide], the EC50 (IL-6) was 1760 nM, the EC50 [1] was over 10000 nM and the inhibition at 10 µM ([1]; given for EC50 >10 μM, TGF-β1, αSMA, 10 μM, read-out: percent inhibition at 10 μM) was 25.4%. The EC50 (SW480 colon cancer cells) was 3.09 µM and the EC50 [2] was 2110 nM.

Work on `CC(C)CC(=O)Nc1cncc(-c2ccc3[nH]nc(-c4cc5c(-c6ccccc6F)cncc5[nH]4)c3n2)c1` [Compound 58, N-(5-(3-(4-(2-Fluorophenyl)-1H-pyrrolo[2,3-c]pyridin-2-yl)-1H-pyrazolo [4,3-b]pyridin-5-yl)pyridin-3-yl)-3-methylbutanamide] yielded an EC50 (IL-6) of 85 nM, an EC50 [1] of 697 nM and an EC50 (SW480 colon cancer cells) of 0.413 µM. The EC50 [2] was 702 nM.

Molecule `Fc1ccc(-c2cncc3[nH]c(-c4n[nH]c5ccc(-c6ccccn6)nc45)cc23)cc1` [Compound 56, 3-(4-(4-Fluorophenyl)-1H-pyrrolo[2,3-c]pyridin-2-yl)-5-(pyridin-2-yl)-1H-pyrazolo[4,3-b]pyridine] has an EC50 (IL-6) of over 10000 nM, an inhibition at 10 µM (IL-6; given for EC50 >10 μM, LPS, IL6, at 10 M [sic], read-out: percent inhibition at 10 M) of 32.6% and an EC50 [1] of 1300 nM. It also gave an EC50 (SW480 colon cancer cells) of 1.12 µM and an EC50 [2] of 2320 nM.

In the case of `c1cc(-c2cncc3[nH]c(-c4n[nH]c5ccc(-c6cncc(CNCC7CCCC7)c6)nc45)cc23)co1` [Compound 333, 1-Cyclopentyl-N-((5-(3-(4-(furan-3-yl)-1H-pyrrolo[2,3-c]pyridin-2-yl)-1H-pyrazolo[4,3-b]pyridin-5-yl)pyridin-3-yl)methyl)methanamine], the EC50 (IL-6) is reported as 456 nM, the EC50 [1] is reported as 1500 nM and the EC50 (SW480 colon cancer cells) is reported as 7.84 µM. The inhibition at 10 µM ([2]; given for EC50 >10 μM, 10 μM, read-out: percent inhibition at 10 μM) was 25.5% and the EC50 [2] was over 10000 nM.
